Reference: patent publication US20230278983A1, “INDOLE DERIVATIVES AND USES THEREOF FOR TREATING A CANCER” (Universite Claude Bernard Lyon 1, priority 2020, published 2023)

Each compound was assayed against CK2 (Homo sapiens (Human), UniProt P68400) (assay: Radiometric CK2 kinase assay). Settings: not given.
Type: biochemical

CK2, sequence (P68400 whole entry): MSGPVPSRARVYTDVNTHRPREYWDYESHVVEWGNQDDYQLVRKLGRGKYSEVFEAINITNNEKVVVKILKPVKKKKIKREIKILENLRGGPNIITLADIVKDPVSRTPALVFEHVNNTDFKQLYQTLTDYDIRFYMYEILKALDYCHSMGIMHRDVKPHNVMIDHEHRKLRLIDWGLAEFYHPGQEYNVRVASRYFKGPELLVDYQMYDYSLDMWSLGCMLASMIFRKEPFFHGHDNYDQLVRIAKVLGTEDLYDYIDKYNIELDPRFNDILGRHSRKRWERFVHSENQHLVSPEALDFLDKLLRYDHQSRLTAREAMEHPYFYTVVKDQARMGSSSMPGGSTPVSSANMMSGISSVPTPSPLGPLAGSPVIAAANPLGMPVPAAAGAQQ

Row | Structure (SMILES) | IC50
1 | COc1cccc(OC)c1-c1ccc(S(=O)(=O)NCCN2CCC(Cn3cc(-c4c(C(=O)OCC(C)C)[nH]c5ccc(F)cc45)nn3)CC2)cc1 [AB1206, isobutyl 3-(1-((1-(2-((2′,6′-dimethoxy-[1,1′-biphenyl])-4-sulfonamido)ethyl)piperidin-4-yl)methyl)-1H-1,2,3-triazol-4-yl)-5-fluoro-1H-indole-2-carboxylate] | 16 nM
2 | CC(=O)c1[nH]c2ccc(F)cc2c1-c1cn(CC2CCN(CCNS(=O)(=O)c3ccc(-c4c(F)cccc4C(F)(F)F)cc3)CC2)nn1 [AB1451, N-(2-(4-((4-(2-acetyl-5-fluoro-1H-indol-3-yl)-1H-1,2,3-triazol-1-yl)methyl)piperidin-1-yl)ethyl)-2′-fluoro-6′-(trifluoromethyl)-[1,1′-biphenyl]-4-sulfonamide] | 45 nM
3 | CCc1ccc(S(=O)(=O)NCCN2CCC(Cn3cc(-c4c(C(=O)OCC(C)C)[nH]c5ccc(Cl)cc45)nn3)CC2)cc1 [AB557, Isobutyl 5-chloro-3-(1-((1-(2-((4-ethylphenyl)sulfonamido)ethyl)piperidin-4-yl)methyl)-1H-1,2,3-triazol-4-yl)-1H-indole-2-carboxylate] | 560 nM
4 | CC(C)COC(=O)c1[nH]c2ccc(Cl)cc2c1-c1cn(CC2CCN(CCNS(=O)(=O)c3ccc(Cl)cc3)CC2)nn1 [AB499, Isobutyl 5-chloro-3-(1-((1-(2-((4-chlorophenyl)sulfonamido)ethyl)piperidin-4-yl)methyl)-1H-1,2,3-triazol-4-yl)-1H-indole-2-carboxylate] | 670 nM
5 | CCOC(=O)c1[nH]c2ccc(F)cc2c1-c1cn(CC2CCN(CCNS(=O)(=O)c3ccc(C(F)(F)F)cc3)CC2)nn1 [AB529, Ethyl 5-fluoro-3-(1-((1-(2-((4-(trifluoromethyl)phenyl)sulfonamido)ethyl)piperidin-4-yl)methyl)-1H-1,2,3-triazol-4-yl)-1H-indole-2-carboxylate] | 700 nM
6 | CC(C)COC(=O)c1[nH]c2ccc(F)cc2c1-c1cn(CC2CCN(CCNS(=O)(=O)c3ccc(-c4ccoc4)cc3)CC2)nn1 [AB1071, isobutyl 5-fluoro-3-(1-((1-(2-((4-(furan-3-yl)phenyl)sulfonamido)ethyl)piperidin-4-yl)methyl)-1H-1,2,3-triazol-4-yl)-1H-indole-2-carboxylate] | 65 nM
7 | CCc1ccc(S(=O)(=O)NCCN2CCC(Cn3cc(-c4c(C(=O)OC(C)C)[nH]c5ccc(Cl)cc45)nn3)CC2)cc1 [AB578, Isopropyl 5-chloro-3-(1-((1-(2-((4-ethylphenyl)sulfonamido)ethyl)piperidin-4-yl)methyl)-1H-1,2,3-triazol-4-yl)-1H-indole-2-carboxylate] | 9200 nM
8 | CCOC(=O)c1[nH]c2ccc(Cl)cc2c1-c1cn(CC2CCN(CCNS(=O)(=O)c3ccc(C)cc3)CC2)nn1 [AB505, Ethyl 5-chloro-3-(1-((1-(2-((4-methylphenyl)sulfonamido)ethyl)piperidin-4-yl)methyl)-1H-1,2,3-triazol-4-yl)-1H-indole-2-carboxylate] | 3760 nM
9 | CCc1ccc(S(=O)(=O)NCCN2CCC(Cn3cc(-c4c(C(=O)OCC(C)C)[nH]c5ccc(F)cc45)nn3)CC2)cc1 [AB556, Isobutyl 3-(1-((1-(2-((4-ethylphenyl)sulfonamido)ethyl)piperidin-4-yl)methyl)-1H-1,2,3-triazol-4-yl)-5-fluoro-1H-indole-2-carboxylate] | 170 nM
10 | CC(C)COC(=O)c1[nH]c2ccc(F)cc2c1-c1cn(CC2CCN(CCNS(=O)(=O)c3ccc(-c4cccnc4N4CCCC4)cc3)CC2)nn1 [AB1073, isobutyl 5-fluoro-3-(1-((1-(2-((4-(2-(pyrrolidin-1-yl)pyridin-3-yl)phenyl)sulfonamido)ethyl)piperidin-4-yl)methyl)-1H-1,2,3-triazol-4-yl)-1H-indole-2-carboxylate] | 18 nM

Same assay, conditions: compound at 0.05 μM; ATP 10 μM

Row | Structure (SMILES) | inhibition at 0.05 µM
11 | O=C(c1[nH]c2ccc(F)cc2c1-c1cn(CC2CCN(CCNS(=O)(=O)c3ccc(-c4cccnc4Cl)cc3)CC2)nn1)C1CC1 [AB1232, 4-(2-chloropyridin-3-yl)-N-(2-(4-((4-(2-(cyclopropanecarbonyl)-5-fluoro-1H-indol-3-yl)-1H-1,2,3-triazol-1-yl)methyl)piperidin-1-yl)ethyl)benzenesulfonamide] | 16%

Same assay, conditions: compound at 0.10 μM; ATP 10 μM

Row | Structure (SMILES) | inhibition at 0.1 µM
12 | CC(=O)c1[nH]c2ccc(F)cc2c1-c1cn(C2CCN(CCNS(=O)(=O)c3ccc(CC(C)C)cc3)CC2)nn1 [AB1321, N-(2-(4-(4-(2-acetyl-5-fluoro-1H-indol-3-yl)-1H-1,2,3-triazol-1-yl)piperidin-1-yl)ethyl)-4-isobutylbenzenesulfonamide] | 4%
13 | CC(=O)c1[nH]c2ccc(F)cc2c1-c1cn(CC2CN(CCNS(=O)(=O)c3ccc(CC(C)C)cc3)C2)nn1 [AB1404, N-(2-(3-((4-(2-acetyl-5-fluoro-1H-indol-3-yl)-1H-1,2,3-triazol-1-yl)methyl)azetidin-1-yl)ethyl)-4-isobutylbenzenesulfonamide] | 20%
14 | CC(=O)c1[nH]c2ccc(F)cc2c1-c1cn(C[C@H]2CCCN(CCNS(=O)(=O)c3ccc(CC(C)C)cc3)C2)nn1 [AB1403] | 9%
15 | CC(=O)c1[nH]c2ccc(F)cc2c1-c1cn(CC2CCN(CCNS(=O)(=O)c3ccc(-c4ccc(F)cc4Cl)cc3)CC2)nn1 [AB1453, N-(2-(4-((4-(2-acetyl-5-fluoro-1H-indol-3-yl)-1H-1,2,3-triazol-1-yl)methyl)piperidin-1-yl)ethyl)-2′-chloro-4′-fluoro-[1,1′-biphenyl]-4-sulfonamide] | 40%

Same assay, conditions: compound at 1 μM; ATP 10 μM

Row | Structure (SMILES) | inhibition at 1 µM
16 | CC(C)COC(=O)c1[nH]c2ccc(F)cc2c1-c1cn(CC2CCN(Cc3ccc(-c4cccc5[nH]ccc45)c(Cl)c3)CC2)nn1 [AB690, Isobutyl 3-(1-((1-(3-chloro-4-(1H-indol-4-yl)benzyl)piperidin-4-yl)methyl)-1H-1,2,3-triazol-4-yl)-5-fluoro-1H-indole-2-carboxylate] | 31%
17 | CC(C)COC(=O)c1[nH]c2ccc(F)cc2c1-c1cn(CC2CCN(Cc3ccc(-c4ccc5c(c4)CCO5)c(Cl)c3)CC2)nn1 [AB731, Isobutyl 3-(1-((1-(3-chloro-4-(2,3-dihydrobenzofuran-5-yl)benzyl)piperidin-4-yl)methyl)-1H-1,2,3-triazol-4-yl)-5-fluoro-1H-indole-2-carboxylate] | 5%
18 | CC(C)CCOc1ccccc1-c1ccc(C(=O)N2CCC(Cn3cc(-c4c(C(=O)OCC(C)C)[nH]c5ccc(F)cc45)nn3)CC2)cc1Cl [AB743, Isobutyl 3-(1-((1-(2-chloro-2′-(isopentyloxy)-[1,1′-biphenyl]-4-carbonyl)piperidin-4-yl)methyl)-1H-1,2,3-triazol-4-yl)-5-fluoro-1H-indole-2-carboxylate] | 9%
19 | CCc1ccc(S(=O)(=O)NCCN2CCC(Cn3cc(-c4c(C(=O)NCCC(C)C)[nH]c5ccc(F)cc45)nn3)CC2)cc1 [AB670, 3-(1-((1-(2-((4-Ethylphenyl)sulfonamido)ethyl)piperidin-4-yl)methyl)-1H-1,2,3-triazol-4-yl)-5-fluoro-N-isopentyl-1H-indole-2-carboxamide] | 14%

Same assay, conditions: inhibition of CK2 activity; ATP 10 μM

Row | Structure (SMILES) | IC50
20 | CC(C)COC(=O)c1[nH]c2ccc(F)cc2c1-c1cn(CC2CCN(CCNS(=O)(=O)N3CCC(Cc4ccccc4)CC3)CC2)nn1 [AB918, isobutyl 3-(1-((1-(2-((4-benzylpiperidine)-1-sulfonamido)ethyl)piperidin-4-yl)methyl)-1H-1,2,3-triazol-4-yl)-5-fluoro-1H-indole-2-carboxylate] | 400 nM
